Each block holds one compound with its values, some of them ahead of it.
Tests used:
[1] = tested on: HCT-116; test: Antiproliferative activity against human HCT-116 cells; format: functional, cell-based
[2] = target: Histone deacetylase; test: Inhibition of HDAC (unknown origin); format: protein assay, Homo sapiens
[3] = tested on: NCI-H460; test: Antiproliferative activity against human NCI-H460 cells; format: functional, cell-based
[4] = tested on: U-251; test: Antiproliferative activity against human U-251 cells; format: functional, cell-based
[5] = tested on: HeLa; test: Antiproliferative activity against human HeLa cells incubated for 24 hrs by WST-1 assay; format: functional, cell-based
[6] = Antiproliferative activity against human A375P cells; format: functional, cell-based
[7] = tested on: SK-MEL-5; test: Antiproliferative activity against human SK-MEL-5 cells; format: functional, cell-based
[8] = tested on: SK-MEL-28; test: Antiproliferative activity against human SK-MEL-28 cells; format: functional, cell-based
[9] = Oral bioavailability CD-1 mouse at 30 mg/kg; format: ADME, organism-based; conditions: in vivo
[10] = tested on: RPMI-8226; test: Antiproliferative activity against human RPMI-8226 cells; format: functional, cell-based
[11] = tested on: U-266; test: Antiproliferative activity against human U-266 cells; format: functional, cell-based
[12] = tested on: NCI-H929; test: Antiproliferative activity against human NCI-H929 cells; format: functional, cell-based
[13] = tested on: A549; test: Antiproliferative activity against human A549 cells; format: functional, cell-based
[14] = target: Protein deacetylase HDAC6 (Homo sapiens, UniProt Q9UBN7); test: Inhibition of HDAC6 (unknown origin)
Sequence of Protein deacetylase HDAC6 (Q9UBN7 whole entry): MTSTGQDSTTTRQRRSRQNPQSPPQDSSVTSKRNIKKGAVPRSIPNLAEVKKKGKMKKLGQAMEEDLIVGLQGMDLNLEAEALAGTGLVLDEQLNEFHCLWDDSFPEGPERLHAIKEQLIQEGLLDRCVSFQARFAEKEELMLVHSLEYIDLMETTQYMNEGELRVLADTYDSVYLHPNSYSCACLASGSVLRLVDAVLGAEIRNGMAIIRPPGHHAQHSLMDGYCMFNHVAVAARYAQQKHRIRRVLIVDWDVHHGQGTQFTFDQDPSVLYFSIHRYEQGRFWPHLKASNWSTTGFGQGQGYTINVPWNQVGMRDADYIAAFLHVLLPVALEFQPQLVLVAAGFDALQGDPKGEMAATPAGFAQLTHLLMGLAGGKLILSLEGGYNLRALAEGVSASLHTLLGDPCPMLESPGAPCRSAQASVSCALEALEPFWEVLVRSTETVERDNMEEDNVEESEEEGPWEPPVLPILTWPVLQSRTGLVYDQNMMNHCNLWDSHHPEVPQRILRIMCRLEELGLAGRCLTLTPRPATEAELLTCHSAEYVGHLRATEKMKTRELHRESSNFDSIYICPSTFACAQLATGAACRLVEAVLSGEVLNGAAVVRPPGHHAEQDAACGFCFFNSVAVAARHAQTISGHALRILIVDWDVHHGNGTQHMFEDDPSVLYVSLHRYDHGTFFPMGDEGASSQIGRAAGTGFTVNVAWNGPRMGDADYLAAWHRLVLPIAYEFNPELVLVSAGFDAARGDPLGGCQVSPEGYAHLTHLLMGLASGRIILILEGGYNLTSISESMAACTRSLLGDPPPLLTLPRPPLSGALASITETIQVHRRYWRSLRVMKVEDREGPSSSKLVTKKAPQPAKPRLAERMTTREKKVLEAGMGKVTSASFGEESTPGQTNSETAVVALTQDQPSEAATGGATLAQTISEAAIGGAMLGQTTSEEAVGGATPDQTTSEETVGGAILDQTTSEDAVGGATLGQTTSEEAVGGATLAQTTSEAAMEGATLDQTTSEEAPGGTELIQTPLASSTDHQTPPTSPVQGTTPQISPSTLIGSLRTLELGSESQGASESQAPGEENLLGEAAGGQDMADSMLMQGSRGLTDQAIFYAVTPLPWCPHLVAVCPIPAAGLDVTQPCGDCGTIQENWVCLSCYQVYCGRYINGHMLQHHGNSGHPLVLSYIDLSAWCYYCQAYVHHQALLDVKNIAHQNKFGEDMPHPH

[15] = tested on: MCF7; test: Cytotoxicity against human MCF7 cells by MTT assay; format: functional
[16] = tested on: HeLa; test: Cytotoxicity against human HeLa cells by MTT assay; format: functional
[17] = Cytotoxicity against human CAL1 cells by MTT assay; format: functional
[18] = tested on: C-33-A; test: Cytotoxicity against human C-33-A cells by MTT assay; format: functional
[19] = tested on: SW480; test: Cytotoxicity against human SW480 cells by MTT assay; format: functional
[20] = tested on: SW-620; test: Cytotoxicity against human SW620 cells by MTT assay; format: functional
[21] = tested on: K-562R; test: Cytotoxicity against human K-562R cells by MTT assay; format: functional
[22] = tested on: U-937; test: Antiproliferative activity against human U-937 cells assessed as reduction cell viability incubated for 48 hrs by MTT assay; format: functional, cell-based; conditions: U-937, 48 h
[23] = tested on: HL-60; test: Antiproliferative activity against human HL-60 cells assessed as reduction cell viability incubated for 48 hrs by MTT assay; format: functional, cell-based; conditions: HL-60, 48 h
[24] = tested on: NCI-H1299; test: Antiproliferative activity against human NCI-H1299 cells assessed as reduction cell viability incubated for 48 hrs by MTT assay; format: functional, cell-based; conditions: NCI-H1299, 48 h
[25] = tested on: HCT-116; test: Antiproliferative activity against human HCT-116 cells assessed as reduction cell viability incubated for 48 hrs by MTT assay; format: functional, cell-based; conditions: HCT-116, 48 h
[26] = tested on: HeLa; test: Antiproliferative activity against human HeLa cells assessed as reduction cell viability incubated for 48 hrs by MTT assay; format: functional, cell-based
[27] = tested on: M14; test: Antiproliferative activity against human M14 cells assessed as reduction cell viability incubated for 48 hrs by MTT assay; format: functional, cell-based; conditions: M14, 48 h
[28] = tested on: HT-1080; test: Antiproliferative activity against human HT-1080 cells assessed as reduction cell viability incubated for 48 hrs by MTT assay; format: functional, cell-based; conditions: HT-1080, 48 h
[29] = tested on: MCF7; test: Antiproliferative activity against human MCF7 cells assessed as reduction cell viability incubated for 48 hrs by MTT assay; format: functional, cell-based; conditions: MCF7, 48 h
[30] = target: DNA (cytosine-5)-methyltransferase 1 (Homo sapiens, UniProt P26358); test: Inhibition of his-tagged human DNMT1 by scintillation counter analysis
Sequence of DNA (cytosine-5)-methyltransferase 1 (P26358 whole entry): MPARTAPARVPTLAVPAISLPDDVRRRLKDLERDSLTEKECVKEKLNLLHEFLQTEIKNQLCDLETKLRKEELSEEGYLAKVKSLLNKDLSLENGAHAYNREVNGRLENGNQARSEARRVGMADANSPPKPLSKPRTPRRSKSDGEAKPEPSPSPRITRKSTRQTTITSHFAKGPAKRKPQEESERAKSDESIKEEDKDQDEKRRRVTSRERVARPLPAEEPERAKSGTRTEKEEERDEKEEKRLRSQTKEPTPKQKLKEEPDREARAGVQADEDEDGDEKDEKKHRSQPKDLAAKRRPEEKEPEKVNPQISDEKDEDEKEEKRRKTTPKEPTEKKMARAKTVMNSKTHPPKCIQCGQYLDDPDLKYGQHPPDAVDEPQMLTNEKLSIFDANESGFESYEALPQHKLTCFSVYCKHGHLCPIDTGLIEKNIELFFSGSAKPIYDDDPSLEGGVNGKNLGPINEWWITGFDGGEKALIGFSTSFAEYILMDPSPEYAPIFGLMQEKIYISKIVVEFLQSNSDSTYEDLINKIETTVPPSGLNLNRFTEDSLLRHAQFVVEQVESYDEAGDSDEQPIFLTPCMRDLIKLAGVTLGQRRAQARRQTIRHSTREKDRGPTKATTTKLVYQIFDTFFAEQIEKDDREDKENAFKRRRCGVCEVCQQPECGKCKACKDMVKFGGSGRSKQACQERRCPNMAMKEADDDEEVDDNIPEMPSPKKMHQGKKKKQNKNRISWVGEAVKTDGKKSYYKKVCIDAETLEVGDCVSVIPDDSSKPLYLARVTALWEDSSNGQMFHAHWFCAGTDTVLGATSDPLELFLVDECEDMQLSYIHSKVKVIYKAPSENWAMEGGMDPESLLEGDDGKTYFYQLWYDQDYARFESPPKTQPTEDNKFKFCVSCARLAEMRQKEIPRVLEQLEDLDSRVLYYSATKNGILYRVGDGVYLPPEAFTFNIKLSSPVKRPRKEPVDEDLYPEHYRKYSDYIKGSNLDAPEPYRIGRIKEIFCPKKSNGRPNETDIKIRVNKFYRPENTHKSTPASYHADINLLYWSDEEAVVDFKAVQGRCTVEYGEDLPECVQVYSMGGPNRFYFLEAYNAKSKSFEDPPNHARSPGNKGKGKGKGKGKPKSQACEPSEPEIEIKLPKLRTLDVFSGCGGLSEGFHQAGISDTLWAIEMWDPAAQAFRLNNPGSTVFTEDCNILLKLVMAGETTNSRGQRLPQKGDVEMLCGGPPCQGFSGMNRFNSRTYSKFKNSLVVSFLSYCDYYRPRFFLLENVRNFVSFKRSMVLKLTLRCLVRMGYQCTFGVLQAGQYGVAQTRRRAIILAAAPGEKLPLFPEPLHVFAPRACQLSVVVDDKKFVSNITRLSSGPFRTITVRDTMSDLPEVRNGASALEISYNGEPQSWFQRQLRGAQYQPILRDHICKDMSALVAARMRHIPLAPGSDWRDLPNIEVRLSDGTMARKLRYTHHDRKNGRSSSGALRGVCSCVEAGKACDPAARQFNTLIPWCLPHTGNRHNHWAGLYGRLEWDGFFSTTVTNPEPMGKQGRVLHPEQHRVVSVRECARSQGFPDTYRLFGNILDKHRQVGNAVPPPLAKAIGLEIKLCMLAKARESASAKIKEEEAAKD

[31] = target: T1, DNA (cytosine-5)-methyltransferase 3A (Homo sapiens, UniProt Q9Y6K1); test: Inhibition of C-terminal biotin-labelled human DNMT3A by multilabel plate reader analysis
T1 sequence (Q9Y6K1 whole entry, looked up): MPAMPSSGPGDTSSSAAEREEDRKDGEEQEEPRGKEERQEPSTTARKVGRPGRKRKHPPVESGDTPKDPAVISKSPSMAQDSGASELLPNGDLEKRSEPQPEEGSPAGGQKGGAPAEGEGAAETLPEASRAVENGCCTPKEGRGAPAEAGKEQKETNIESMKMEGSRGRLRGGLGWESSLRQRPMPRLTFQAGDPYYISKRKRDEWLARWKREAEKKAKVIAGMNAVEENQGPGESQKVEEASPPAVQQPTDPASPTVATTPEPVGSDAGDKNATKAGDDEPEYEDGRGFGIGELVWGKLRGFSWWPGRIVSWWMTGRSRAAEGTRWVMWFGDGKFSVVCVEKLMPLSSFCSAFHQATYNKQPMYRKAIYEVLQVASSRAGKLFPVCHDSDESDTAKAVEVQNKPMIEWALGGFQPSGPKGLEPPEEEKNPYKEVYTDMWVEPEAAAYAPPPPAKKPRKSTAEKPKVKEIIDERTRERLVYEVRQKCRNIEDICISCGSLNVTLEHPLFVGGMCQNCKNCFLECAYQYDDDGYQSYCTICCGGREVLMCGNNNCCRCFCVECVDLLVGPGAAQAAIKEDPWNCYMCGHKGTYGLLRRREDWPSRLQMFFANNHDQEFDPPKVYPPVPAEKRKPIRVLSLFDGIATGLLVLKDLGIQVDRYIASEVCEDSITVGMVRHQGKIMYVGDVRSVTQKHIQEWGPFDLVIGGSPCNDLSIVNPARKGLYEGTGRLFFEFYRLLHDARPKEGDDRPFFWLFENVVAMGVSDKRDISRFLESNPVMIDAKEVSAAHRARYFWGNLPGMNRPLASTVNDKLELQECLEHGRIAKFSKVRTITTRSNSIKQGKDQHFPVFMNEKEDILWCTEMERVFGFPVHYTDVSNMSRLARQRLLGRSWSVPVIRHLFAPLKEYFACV

[32] = tested on: KG-1; test: Antiproliferative activity against human KG-1 cells; format: functional, cell-based
[33] = target: T1, DNA (cytosine-5)-methyltransferase 3A; test: Inhibition of DNMT3A (unknown origin)
[34] = tested on: CAKI-1; test: Antiproliferative activity against human CAKI-1 cells assessed as inhibition of cell growth incubated for 72 hrs by MTT assay; format: functional, cell-based; conditions: CAKI-1, 72 h
[35] = tested on: MCF7; test: Antiproliferative activity against human MCF7 cells assessed as inhibition of cell growth incubated for 72 hrs by MTT assay; format: functional, cell-based; conditions: MCF7, 72 h
[36] = tested on: BT-483; test: Antiproliferative activity against human BT-483 cells; format: functional, cell-based
[37] = target: T2, DNA topoisomerase 1 (Homo sapiens, UniProt P11387); test: Inhibition of topoisomerase 1 (unknown origin)
T2 sequence (P11387 whole entry): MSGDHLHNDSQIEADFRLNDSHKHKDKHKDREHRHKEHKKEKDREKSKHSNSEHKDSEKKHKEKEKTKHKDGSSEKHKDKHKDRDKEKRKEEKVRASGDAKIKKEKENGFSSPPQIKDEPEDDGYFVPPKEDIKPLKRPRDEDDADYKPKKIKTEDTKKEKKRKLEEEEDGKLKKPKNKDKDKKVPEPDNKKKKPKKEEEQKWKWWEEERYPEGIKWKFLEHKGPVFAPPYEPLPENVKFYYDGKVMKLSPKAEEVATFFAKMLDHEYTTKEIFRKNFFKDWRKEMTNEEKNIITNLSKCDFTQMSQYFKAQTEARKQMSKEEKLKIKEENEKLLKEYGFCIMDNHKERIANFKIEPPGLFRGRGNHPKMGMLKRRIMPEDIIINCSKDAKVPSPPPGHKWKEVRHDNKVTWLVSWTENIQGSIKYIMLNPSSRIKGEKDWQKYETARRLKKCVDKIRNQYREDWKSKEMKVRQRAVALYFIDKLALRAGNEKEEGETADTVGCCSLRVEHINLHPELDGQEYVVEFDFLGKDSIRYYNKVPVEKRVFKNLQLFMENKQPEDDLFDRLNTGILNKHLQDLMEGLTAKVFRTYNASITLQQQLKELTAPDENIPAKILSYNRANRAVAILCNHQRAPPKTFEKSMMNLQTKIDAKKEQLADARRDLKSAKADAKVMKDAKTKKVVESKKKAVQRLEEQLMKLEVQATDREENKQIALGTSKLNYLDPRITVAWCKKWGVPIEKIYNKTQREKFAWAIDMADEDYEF

[38] = Inhibition of topoisomerase 2 (unknown origin); design: species or system Homo sapiens
[39] = tested on: HeLa; test: Antiproliferative activity against human HeLa cells assessed as reduction in cell viability incubated for 48 hrs by MTT assay; format: functional, cell-based
[40] = tested on: A549; test: Antiproliferative activity against human A549 cells assessed as reduction in cell viability incubated for 48 hrs by MTT assay; format: functional, cell-based; conditions: A549, 48 h

IC50 [1]: 600 nM
IC50 [2]: 1.5 nM
IC50 [3]: 1 nM
IC50 [4]: 0.6 nM
Compound: CC1(C)CC(=O)Nc2ccc(C(=O)NCC3CCC(/C=C/C(=O)NO)CC3)cc21 (stereo not drawn)

IC50 [5]: 1800 nM
IC50 [2]: 28 nM
Compound: C/C(=C\c1ccc(C(=O)NO)cc1)CNc1cnc2c(Br)cccc2c1

IC50 [1]: < 10000 nM
Compound: CCN(CC)CCOC(=O)c1ccc2c(c1)C1C(C(=O)c3ccccc3N1CCN(CC)CC)N2CCN(CC)CC (stereo not drawn)

Compound: CC[C@@]1(O)C(=O)OCc2c1cc1n(c2=O)Cc2c-1nc1cc(F)c(OC)cc1c2C
IC50 [6]: 1.9 nM
IC50 [7]: 2.6 nM
IC50 [8]: 1.4 nM

IC90 [1]: < 10000 nM
Compound: CCN(CC)CCOC(=O)c1ccc2c(c1)c1nc3ccccc3c(OCCN(CC)CC)c1n2CCN(CC)CC

bioavailability [9]: 10.9%
Compound: COc1ccc2c(c1)/C(=N\OCCN1CCCC1)c1c-2c(O)nc2ccccc12

IC50 [10]: 7490 nM
IC50 [12]: 9140 nM
IC50 [13]: 270 nM
IC50 [14]: 0.291 nM
Compound: O=C(/C=C/c1cccc(S(=O)(=O)c2ccc3ccccc3n2)c1)NO
IC50 [11]: 40600 nM

Compound: CCN(CC)CCNc1nc2c(Nc3ccccc3)c3ccccc3nc2s1
GI50 [15]: 15900 nM
GI50 [16]: 15900 nM
GI50 [17]: 15900 nM
GI50 [18]: 15900 nM
GI50 [19]: 15900 nM
GI50 [20]: 15900 nM
GI50 [21]: 15900 nM

IC50 [22]: 700 nM
IC50 [23]: 1600 nM
IC50 [24]: 5300 nM
IC50 [25]: 1500 nM
IC50 [26]: 2000 nM
IC50 [28]: 2700 nM
IC50 [29]: 300 nM
IC50 [30]: 27000 nM
IC50 [31]: 800 nM
Compound: O=C(Nc1ccc(Nc2ccnc3ccccc23)cc1)c1cccc(Nc2ccnc3ccccc23)c1
IC50 [27]: 4700 nM

IC50 [33]: 900 nM
IC50 [23]: 200 nM
IC50 [24]: 14700 nM
IC50 [25]: 1000 nM
IC50 [26]: 140 nM
IC50 [28]: 500 nM
IC50 [29]: 4100 nM
IC50 [30]: 23000 nM
IC50 [31]: 6000 nM
Compound: O=C(Nc1ccc(Nc2ccnc3ccccc23)cc1)c1ccc(Nc2ccncc2)cc1
IC50 [32]: 960 nM
IC50 [27]: 500 nM

IC50 [35]: 2400 nM
Compound: CC1CN(c2nc3ccccc3c3c2-c2ccc(Cl)cc2C3=O)CCN1 (stereo not drawn)
IC50 [34]: 1660 nM

IC50 [36]: 1100 nM
Compound: COc1ccc2c(c1)/C(=N\OCCCN(C)C)c1c-2c(N2CCNCC2)nc2ccccc12

IC50 [37]: 2630 nM
IC50 [38]: 4950 nM
IC50 [39]: 390 nM
IC50 [40]: 1110 nM
bioavailability [9]: 39.8%
Compound: CN(C)CCCO/N=C1\c2cc(OCCCN(C)C)ccc2-c2cnc3ccccc3c21
